Reference: patent US20130029983A1, “AMINOTHIENOPYRIDAZINE INHIBITORS OF TAU ASSEMBLY” (priority 2009, published 2013)
Read-outs that look alike come from different tables or passages of the source.

What was measured:
K18PL tau [1] = biological target: T1, K18PL tau (Homo sapiens, UniProt P10636, P618L); test: Heparin-induced K18PL tau fibrillization assay monitored by ThT fluorescence; type: biochemical; conditions: for inhibition at 80 µM / Tau ThT Assay % Inhib.: highest tested concentration (80 μM); for inhibition at 80 µM: read-out: Tau ThT Assay % Inhib.; for IC50 / Tau ThT Assay Log IC50: logarithm of IC50, K18PL tau ThT fluorescence inhibition; for IC50: read-out: Tau ThT Assay Log IC50 (converted)
T1 construct: (K18PL; amino acids 244-369); made in house
Protocol: Tau fibril formation reactions were performed essentially as described (Crowe, A., Ballatore, C., Hyde, E., Trojanowski, J. Q., and Lee, V. M. Y. (2007) Biochemical and Biophysical Research Communications 358, 1-6). K18PL (2 μl of a 30 μM stock that also contained 0.24 μM Alexa Red-labeled K18PL) was dispensed into black 1536-well plates (Grenier) using a solenoid-based dispenser. Following transfer of 23 nL of test compound or DMSO vehicle by a pin tool from compound library plates, 2 μl/well of 40 μM heparin in reagent buffer was dispensed and the plate was centrifuged for 15 s at 1000 rpm in a table-top centrifuge. The fibrillization reaction proceeded for 6 hours at 37° C. in a humidified incubator (Kalypsys).
K18PL fibril formation was quantified with a ThT assay as previously described (Crowe, A., Ballatore, C., Hyde, E., Trojanowski, J. Q., and Lee, V. M. Y. (2007) Biochemical and Biophysical Research Communications 358, 1-6). Briefly, 1 μl/well of 62.5 μM ThT (Sigma) in 100 mM glycine, pH 8.5 (12.5 μM final concentration) was dispensed into 1536-well plates after completion of the fibrillization reaction and incubated at room temperature for 1 hour. Plates were read on an Envision fluorescence plate reader with an excitation of 450 nm and an emission setting of 510 nm.
Compound effects on tau assembly were determined for the ThT and FP assays using the formula 1−(Fcompound− FDMSO)/( Fcontrol− FDMSO), where Fcontrol denotes the median plate fluorescence values (ThT assay) or mP values (FP assay) of the non-fibrillizing K18 KD control wells, FDMSO denotes the median value of the DMSO control wells, and Fcompound denotes the compound well values. The resulting values were multiplied by 100 to obtain the percent inhibition of tau fibril formation.
(§1) The solubility of test compounds in the sodium acetate buffer used for subsequent fibrillization reactions was determined by turbidimetric measurements. Compounds were then evaluated in a heparin-induced tau assembly assay, in which the fibrillization of the truncated K18 tau fragment (comprised of four MT-binding repeats) bearing the P301L mutation (K18PL) found in FTDP-17, was monitored by thioflavine-T (ThT) binding and fluorescence (FIG. 3A). (Crowe, A.; et al., Identification of aminothienopyridazine inhibitors of tau assembly by quantitative high-throughput screening. Biochemistry 2009, 48, 7732-45.) The inhibitory activity of test compounds was then confirmed with an orthogonal sedimentation assay in which compound-treated fibrillizing mixtures were centrifuged and quantitation of K18PL tau in the soluble and insoluble fraction was performed by densitometric analyses of SDS-PAGE (FIG. 3B). […] Thus, the tau fibrillization assay was repeated in which both DMSO- and compound-treated mixtures were initially centrifuged for 30 min. prior to incubation (i.e., at time zero of the fibrillization reaction) to remove any pelletable material.

K18PL tau [2] = biological target: T1, K18PL tau; test: K18PL tau centrifugation (sedimentation) assay, SDS-PAGE densitometry; type: biochemical; conditions: K18PL tau centrifugation assay
Protocol: The determination of compound-induced effects on the amount of tau that remains soluble upon centrifugation, and EM visualization of tau species following incubation with test compounds, were as previously described (Crowe, A., Ballatore, C., Hyde, E., Trojanowski, J. Q., and Lee, V. M. Y. (2007) Biochemical and Biophysical Research Communications 358, 1-6).
as §1

Aβ(1-42) = biological target: T2, Aβ(1-42) (Homo sapiens, UniProt P05067); test: Aβ(1-42) fibrillization assay (ThT); type: biochemical; conditions: Table 3, highest tested concentration (80 μM); for inhibition at 80 µM: read-out: Aβ42 ThT Assay % Inhib.
T2 construct: Synthetic Aβ(1-42) peptide (rPeptide); purchased rPeptide

[3] = Table 3, NC = not calculated due to insufficient activity

T1 sequence (P10636 561-686 P618L): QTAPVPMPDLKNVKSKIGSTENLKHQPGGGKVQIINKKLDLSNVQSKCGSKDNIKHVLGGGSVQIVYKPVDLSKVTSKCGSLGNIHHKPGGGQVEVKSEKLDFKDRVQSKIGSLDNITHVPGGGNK
T2 sequence (P05067 672-713 limits assumed): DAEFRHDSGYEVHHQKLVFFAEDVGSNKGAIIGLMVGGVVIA

| Compound | Tau Cent. Assay % Soluble (K18PL tau [2]; Table 4) [%] | Tau Cent. Assay % Soluble (K18PL tau [2]; Table 3) [%] | inhibition at 80 µM (Aβ(1-42)) [%] | inhibition at 80 µM (K18PL tau [1]; Table 3) [%] | IC50 (K18PL tau [1]; [3]) [µM] | other results |
| --- | --- | --- | --- | --- | --- | --- |
| CCOC(=O)c1nn(-c2ccc(NC)cc2)c(=O)c2c(N)scc12 [CNDR-51358, Ethyl 5-amino-3-(4-(methylamino)phenyl)-4-oxo-3,4-dihydrothieno[3,4-d]pyridazine-1-carboxylate] | 61 | – | – | – | – | melting point: 211 to 213 °C; inhibition at 80 µM (K18PL tau [1]; Table 4): 76%; IC50 (K18PL tau [1]; Table 4): 3.98 µM |
| CCOC(=O)c1nn(-c2ccc(Br)cc2)c(=O)c2c(N)scc12 [CNDR-51386, Ethyl 5-amino-3-(4-bromophenyl)-4-oxo-3,4-dihydrothieno[3,4-d]pyridazine-1-carboxylate] | – | – | – | – | – | melting point: 198 to 200 °C |
| CCOC(=O)c1nn(-c2ccc(Cl)cc2)c(=O)c2c(N)sc(Br)c12 [CNDR-51411, Ethyl 5-amino-7-bromo-3-(4-chlorophenyl)-4-oxo-3,4-dihydrothieno[3,4-d]pyridazine-1-carboxylate] | 62 | – | – | – | – | inhibition at 80 µM (K18PL tau [1]; Table 4): 92%; Tau ThT Assay Log IC50 (K18PL tau [1]; Table 4): −5.4 |
| CCOC(=O)c1nn(-c2ccccc2C)c(=O)c2c(N)scc12 [CNDR-51424, Ethyl 5-amino-4-oxo-3-(o-tolyl)-3,4-dihydrothieno[3,4-d]pyridazine-1-carboxylate] | 58 | – | – | – | – | inhibition at 80 µM (K18PL tau [1]; Table 4): 82%; IC50 (K18PL tau [1]; Table 4): 1.26 µM |
| CCOC(=O)c1nn(-c2ccccc2Cl)c(=O)c2c(N)scc12 [CNDR-51425, Ethyl 5-amino-3-(2-chlorophenyl)-4-oxo-3,4-dihydrothieno[3,4-d]pyridazine-1-carboxylate] | 61 | – | – | – | – | inhibition at 80 µM (K18PL tau [1]; Table 4): 87%; IC50 (K18PL tau [1]; Table 4): 5.01 µM |
| Nc1scc2c(C(=O)NCCO)nn(-c3ccc(Cl)cc3)c(=O)c12 [CNDR-51433, 5-Amino-3-(4-chlorophenyl)-N-(2-hydroxyethyl)-4-oxo-3,4-dihydrothieno[3,4-d]pyridazine-1-carboxamide] | 77 | – | – | – | – | inhibition at 80 µM (K18PL tau [1]; Table 4): 82%; IC50 (K18PL tau [1]; Table 4): 3.98 µM |
| CCOC(=O)c1nn(-c2ccc(C)cc2C)c(=O)c2c(N)scc12 [CNDR-51434] | 56 | – | – | – | – | Tau ThT Assay % Inhib. (K18PL tau [1]; Table 4): 87%; Tau ThT Assay Log IC50 (K18PL tau [1]; Table 4): −5.7 |
| CCOC(=O)c1nn(-c2ccccc2-c2ccccc2)c(=O)c2c(N)scc12 [CNDR-51435, Ethyl 3-([1,1′-biphenyl]-2-yl)-5-amino-4-oxo-3,4-dihydrothieno[3,4-d]pyridazine-1-carboxylate] | 65 | – | – | – | – | inhibition at 80 µM (K18PL tau [1]; Table 4): 78%; IC50 (K18PL tau [1]; Table 4): 0.794 µM |
| CCOC(=O)c1nn(-c2ccccc2F)c(=O)c2c(N)scc12 [CNDR-51439, Ethyl 5-amino-3-(2-fluorophenyl)-4-oxo-3,4-dihydrothieno[3,4-d]pyridazine-1-carboxylate] | 41 | – | – | – | – | inhibition at 80 µM (K18PL tau [1]; Table 4): 48%; IC50 (K18PL tau [1]; Table 4): 0.794 µM |
| CCN(CC)C(=O)c1nn(-c2ccc(OC)cc2)c(=O)c2c(N)scc12 [CNDR-51443, 5-Amino-N,N-diethyl-3-(4-methoxyphenyl)-4-oxo-3,4-dihydrothieno[3,4-d]pyridazine-1-carboxamide] | 59 | – | – | – | – | inhibition at 80 µM (K18PL tau [1]; Table 4): 75%; IC50 (K18PL tau [1]; Table 4): 7.94 µM |
| CCOC(=O)c1nn(-c2ccccc2)c(=O)c2c(N)scc12 [Compound 5a] | – | 55 | – | – | – | Aβ42 ThT Assay % Inhib. (Aβ(1-42)): −1%; Tau ThT Assay % Inhib. (K18PL tau [1]; Table 3): 80%; Tau ThT Assay Log IC50 (K18PL tau [1]; [3]): −5.2 |
| CCOC(=O)c1nn(-c2ccc(C)c(C)c2)c(=O)c2c(N)scc12 [Compound 5c] | – | 28 | 7 | 48 | – | – |
| CCOC(=O)c1ccc(-n2nc(C(=O)OCC)c3csc(N)c3c2=O)cc1 [Compound 5e] | – | 23 | 4 | 29 | – | – |
| CCOC(=O)c1nn(-c2ccccc2)c(=O)c2c(N)sc(C)c12 [Compound 5f] | – | 4 | 21 | 35 | – | – |
| CCOC(=O)c1nn(-c2ccc(Cl)c(Cl)c2)c(=O)c2c(N)scc12 [Compound 5g] | – | 12 | 6 | 29 | – | – |
| CCOC(=O)c1nn(-c2ccc(C)cc2)c(=O)c2c(N)scc12 [Compound 5h] | – | 35 | 12 | 51 | 126 | – |
| Nc1scc2c(C(=O)O)nn(-c3ccccc3)c(=O)c12 [Compound 6a] | – | 84 | 20 | 92 | 7.94 | – |
| COc1ccc(-n2nc(C(=O)O)c3csc(N)c3c2=O)cc1 [Compound 6b] | – | 95 | 1 | 94 | 2.51 | – |
| Nc1scc2c(C(=O)NCc3ccccc3)nn(-c3ccccc3)c(=O)c12 [Compound 8a] | – | 54 | 27 | 80 | 7.94 | – |
| Nc1scc2c(C(=O)N3CCOCC3)nn(-c3ccccc3)c(=O)c12 [Compound 8b] | – | 89 | 0 | 81 | 15.8 | – |
| NC(=O)c1nn(-c2ccccc2)c(=O)c2c(N)scc12 [Compound 8c] | – | 89 | 16 | 93 | 6.31 | – |
| CCN(CC)C(=O)c1nn(-c2ccc(OC)cc2)c(=O)c2c(N)scc12 [Compound 8d] | – | 99 | 35 | 95 | 10 | – |
| CCOC(=O)c1nn(-c2ccc(OC)cc2)c(=O)c2c(NC(=O)Cc3ccccc3)scc12 [Compound 9a] | – | 0 | – | – | – | Tau ThT Assay % Inhib. (K18PL tau [1]; Table 3): 31% |
| CCOC(=O)c1nn(-c2ccccc2)c(=O)c2c(NC(C)=O)scc12 [Compound 9b] | – | 11 | – | 27 | – | – |
| CCOC(=O)c1nn(-c2ccccc2)c(=O)c2c(NC(=O)c3ccccc3)scc12 [Compound 9c] | – | 2 | -7 | 8 | – | – |
| Nc1nn(-c2ccccc2)c(=O)c2c(N)scc12 [Compound 14] | – | 86 | 21 | 92 | 6.31 | – |
| Nc1scc2c(CO)nn(-c3ccccc3)c(=O)c12 [Compound 15] | – | 81 | 10 | 91 | 6.31 | – |
| CC(=O)Nc1sc(C)c2cnn(-c3ccccc3)c(=O)c12 [Compound 16] | – | 5 | -11 | 11 | – | – |
| COC(=O)c1nn(-c2ccc(F)cc2)c(=O)c2c(N)scc12 [Compound 18] | – | 64 | 29 | 86 | 5.01 | – |
| COC(=O)c1nn(-c2cccc(C(F)(F)F)c2)c(=O)c2c(N)scc12 [Compound 19] | – | 41 | – | 66 | 10 | – |
